From EP4509511A1, “SUBSTITUTED SPIRO-ISOXAZOLINYL LACTAMS, SALTS THEREOF AND THEIR USE AS HERBICIDALLY ACTIVE SUBSTANCES” (Bayer Aktiengesellschaft, priority 2023, dated 2025)

What was measured:
[1] = test system: MATIN; assay: Herbicidal pre-emergence action - Part I; type: in vivo, Matricaria inodora; settings: visual grading after ca. 3 weeks vs untreated controls
Summary of the method: (§1)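 Visual % injury, ~3 weeks post-application, relative to untreated pots. Treatment: aqueous WP/EC preparation with 0.5% additive sprayed pre-emergence on soil at 600 l/ha, application rate 1280 g/ha or less.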

[2] = test system: STEME; assay: Herbicidal pre-emergence action - Part I; type: in vivo, Stellaria media; settings: visual grading after ca. 3 weeks vs untreated controls
Summary of the method: as §1

[3] = test system: KCHSC; assay: Herbicidal pre-emergence action - Part I; type: in vivo, Kochia scoparia; settings: 1280 g/ha
Summary of the method: as §1

[4] = test system: STEME; assay: Herbicidal post-emergence action - Part I; type: in vivo, Stellaria media; settings: 1280 g/ha, one-leaf stage, rated visually after about 3 weeks vs untreated controls
Summary of the method: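 Greenhouse weeds grown in sandy loam were sprayed post-emergence at the one-leaf stage, 2-3 weeks after sowing. Compounds were applied as WP or EC in water with 0.5% additive at 600 L/ha, at 1280 g/ha or below. Visual damage was rated after about 3 weeks versus untreated plants (0-100%).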

[5] = test system: LOLRI; assay: Herbicidal pre-emergence action - Part II; type: in vivo, Lolium rigidum; settings: 320 g/ha; Table C7
Excerpt: (§2) Seeds of mono- and dicotyledonous weed plants and crop plants were sown, in plastic or organic planting pots, in sandy loam and covered with soil. The compounds according to the invention, formulated in the form of wettable powders (WP) or as emulsifiable concentrates (EC), were applied to the surface of the covering soil as aqueous suspension or emulsion, with the addition of 0.5% of an additive, at an application rate of 600 1 of water/ha (converted). Following treatment, the pots were placed in a greenhouse and kept under optimum growth conditions for the test plants. The visual grading of the damage to the test plants was carried out after ca. 3 weeks in comparison to untreated controls (herbicidal effect in percent (%): 100% effect = plants have died off, 0% effect = as control plants). Tables C1 to C12 below show the effects of selected compounds of the general formula (I) according to table 1 on various harmful plants and an application rate corresponding to 320 g/ha or below obtained by the experimental procedure mentioned above. Table C1: pre-emergence activity at 320g/ha against ABUTH in %

[6] = test system: SETVI; assay: Herbicidal pre-emergence action - Part II; type: in vivo, Setaria viridis
Excerpt: as §2

[7] = test system: ZEAMX; assay: Pre-emergence effects on crop plants; type: in vivo, Zea mays; settings: crop plant
Excerpt: (§3) Seeds of mono- and dicotyledonous weed plants and crop plants were sown, in plastic or organic planting pots, in sandy loam and covered with soil. The compounds according to the invention, formulated in the form of wettable powders (WP) or as emulsifiable concentrates (EC), were applied to the surface of the covering soil as aqueous suspension or emulsion, with the addition of 0.5% of an additive, at an application rate of 600 1 of water/ha (converted). Following treatment, the pots were placed in a greenhouse and kept under optimum growth conditions for the test plants. The visual grading of the damage to the test plants was carried out after ca. 3 weeks in comparison to untreated controls (herbicidal effect in percent (%): 100% effect = plants have died off, 0% effect = as control plants). Tables D1 to D5 below show the effects of various compounds of the general formula (I) according to Table 1 on various crop plants and an application rate corresponding to 320 g/ha or below obtained by the experimental procedure mentioned above in Biological Examples, Section C. Table […]: pre-emergence activity at 320g/ha against ZEAMX in %

[8] = test system: GLXMA; assay: Pre-emergence effects on crop plants; type: in vivo, Glycine max; settings: crop plant
Excerpt: as §3

[9] = test system: TRZAS; assay: Post-emergence effects on crop plants; type: in vivo, Triticum aestivum; settings: crop plant
Summary of the method: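 Crop plants were grown in sandy loam in the greenhouse and sprayed at the single-leaf stage, 2–3 weeks after sowing, with WP or EC formulations plus 0.5% additive in 600 l water/ha, at rates of 320 g/ha or below. Injury was scored visually about 3 weeks later as % effect versus untreated controls (100% = plants dead).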

[10] = test system: BRSNW; assay: Post-emergence effects on crop plants; type: in vivo, Brassica napus; settings: crop plant
Excerpt: Seeds of mono- and dicotyledonous weed plants and crop plants were sown, in plastic or organic planting pots, in sandy loam, covered with soil and grown in a greenhouse under controlled growth conditions. 2 to 3 weeks after sowing, the test plants were sprayed in the single-leaf stage. The compounds according to the invention, formulated in form of wettable powders (WP) or as emulsifiable concentrates (EC), were sprayed onto the green plant parts as aqueous suspension or emulsion, with the addition of 0.5% of an additive, at an application rate of 600 1 of water/ha (converted). The test plants were placed in the greenhouse for ca. 3 weeks under optimum growth conditions, and then the effect of the preparations was assessed visually in comparison with untreated controls (herbicidal effect in percent (%): 100% effect = plants have died off, 0% effect = as control plants). Tables F1 to F5 below show the effects of selected compounds of the general formula (I) according to table 1 on various crop plants and an application rate corresponding to 320 g/ha or below obtained by the experimental procedure mentioned above. Table […]: post-emergence activity at 5g/ha against ZEAMX in %

[11] = Table A10a, visual grading after ca. 3 weeks vs untreated controls
[12] = 80 g/ha, table titled F4c (BRSNW)

Structure (SMILES) | pre-emergence activity at 320g/ha against MATIN in % [1] [%] | pre-emergence activity at 1280g/ha against MATIN in % [1] [%] | pre-emergence activity at 80g/ha against STEME in % ([2]; 80 g/ha) [%] | pre-emergence activity at 320g/ha against STEME in % [2] [%] | pre-emergence activity at 1280g/ha against STEME in % [2] [%] | pre-emergence activity at 1280g/ha against KCHSC in % ([3]; 504 h) [%] | pre-emergence activity at 1280g/ha against KCHSC in % [3, 11] [%] | post-emergence activity at 1280g/ha against STEME in % [4] [%] | pre-emergence activity against LOLRI [5] [%] | pre-emergence activity against SETVI ([6]; 80 g/ha, Table C10b) [%] | pre-emergence activity against SETVI ([6]; 320 g/ha, Table C10a) [%] | pre-emergence activity against ZEAMX ([7]; 80 g/ha, Table D1b) [%] | pre-emergence activity against ZEAMX ([7]; 320 g/ha, Table D1a) [%] | pre-emergence activity against GLXMA ([8]; 80 g/ha, Table D4b) [%] | post-emergence activity against TRZAS ([9]; 80 g/ha, Table F2c) [%] | post-emergence activity against TRZAS ([9]; 320 g/ha, Table F2d) [%] | post-emergence activity against BRSNW [10, 12] [%] | pre-emergence activity against GLXMA ([8]; Table D4a, title: 320g/ha, application rate: 80 g/ha) [%] | post-emergence activity against BRSNW ([10]; table titled F4d (BRSNW), title: 320 g/ha, application rate: 80 g/ha) [%]
Cc1ccsc1C1=NOC2(CCCN(Cc3c(F)cccc3F)C2=O)C1 (racemic) [Compound I-2] | 90 | 90 | 90 | 90 | 90 | 90 | 90 | 90 | 90 | 100 | 100 | 0 | 0 | 0 | 0 | 0 | 10 |  | 
O=C1N(Cc2ccccc2F)CCC12CC(c1c(F)cccc1F)=NO2 (racemic) [Compound I-10] | 90 | 90 |  | 90 | 90 | 90 | 90 | 90 | 80 |  | 90 | 0 | 0 | 10 | 0 | 10 | 0 |  | 
Cc1ccsc1C1=NOC2(CCN(Cc3c(F)cccc3F)C2=O)C1 (racemic) [Compound I-16, 7-(2,6-Difluorobenzyl)-3-(3-methyl-2-thienyl)-1-oxa-2,7-diazaspiro[4.4]non-2-en-6-one] | 90 | 90 |  |  | 90 |  | 90 | 90 | 100 |  | 90 | 10 | 20 | 10 | 0 | 0 | 0 | 20 | 0
